Assay results published in patent US20100152188A1, “Novel Heterocyclic Compounds” (priority 2005, published 2010).
Where two headings read alike, the source gives them in different places.

Legend:
[1] = system: NCIH460; experiment: Anti-cancer screen (MTT), NCIH460; type: cell-based; details: Homo sapiens, NCI-H460, 48 hours with compound, tested at 0.01-100 µM
In short: (§1)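 Seed cells at 5000 per well and let them attach for 24 h; add compound at five final concentrations from 0.01 to 100 µM; incubate 48 h; add MTT for 3 h, dissolve formazan in DMSO and read at 570 nm. GI50, TGI and LC50 follow from percent growth relative to T0 and untreated wells.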

[2] = system: HCT116; experiment: Anti-cancer screen (MTT), HCT116; type: cell-based; details: Homo sapiens, HCT-116, 48 hours with compound, tested at 0.01-100 µM
In short: as §1

[3] = system: MDAMB-231/U 251; experiment: Anti-cancer screen (MTT), MDAMB-231/U 251; type: cell-based; details: for CC50: read-out: MDAMB-231/U 251 LC50
In short: as §1

[4] = system: NCIH460, HCT116, MDAMB-231/U 251; experiment: Anti-cancer screen, mean GI50 over the cell lines; type: cell-based; details: in µM
In short: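 Growth was scored by MTT absorbance at 570 nm relative to control wells and a pre-treatment T0 reading. Compounds were tested at five final concentrations (0.01–100 µM, triplicate) for 48 h on NCIH460, HCT116 and U251 cells, each plated at 5000 cells/well 24 h before dosing.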

[5] = system: HDAC; experiment: HDAC inhibition; type: biochemical; details: for HDAC Inhibition 1 μM: compound at 1 μM; for HDAC Inhibition 10 μM: compound at 10 μM
[6] = 48 hours with compound, MTT, tested at 0.01-100 µM

SMILES	GI50 [1]	IC (TGI) [1]	LC50 [1]	GI50 [2]	IC (TGI) [2]	LC50 (concentration giving 50% net cell kill relative to T0) [2]	CC50 ([3]; 48 h)	GI50 [3, 6]	IC (TGI) [3, 6]	Mean GI50 [4]	HDAC Inhibition 1 μM [5]	HDAC Inhibition 10 μM [5]	CC50 ([2]; read-out: HCT116 LC50)	CC50 [3, 6]
O=C(NCc1ccc(C(=O)Nc2nnc(C3CC3)s2)cc1)OCc1nccs1 [Example 65, 1,3-Thiazol-2-ylmethyl(4-{[(5-cyclopropyl-1,3,4-thiadiazol-2-yl)amino]carbonyl}benzyl)carbamate]	12 µM	85 µM	> 100 µM	36 µM	> 100 µM	> 100 µM	> 100 µM	5 µM	45 µM	17.67	11.65	8.84	–	–
O=C(NCc1ccc(C(=O)N2CCN(Cc3ccc4c(c3)OCO4)CC2)cc1)OCc1nc2ccccc2s1 [Example 66, 1,3-Benzothiazol-2-ylmethyl(4-{[4-(1,3-benzodioxol-5-ylmethyl)piperazin-1-yl]carbonyl}benzyl)carbamate]	1 µM	> 100 µM	> 100 µM	4.8 µM	> 100 µM	> 100 µM	> 100 µM	6 µM	> 100 µM	3.93	8.57	12.98	–	–
O=C(NCc1ccc(C(=O)Nc2nnc(C3CC3)s2)cc1)OCc1nc2ccccc2s1 [Example 67, 1,3-Benzothiazol-2-ylmethyl(4-{[(5-cyclopropyl-1,3,4-thiadiazol-2-yl)amino]carbonyl}benzyl)carbamate]	3.5 µM	9.5 µM	> 100 µM	1.8 µM	67 µM	> 100 µM	> 100 µM	3.5 µM	9 µM	2.93	12.17	11.64	–	–
O=C(NCc1ccc(C(=O)N2CCN(c3ncccn3)CC2)cc1)OCc1nccs1 [Example 68, 1,3-thiazol-2-ylmethyl{4-[(4-pyrimidin-2-ylpiperazin-1-yl)carbonyl]benzyl}carbamate]	33 µM	> 100 µM	> 100 µM	9 µM	> 100 µM	> 100 µM	> 100 µM	0.2 µM	21 µM	14.1	11.14	5.80	–	–
O=C(Nc1ccc(C(=O)NO)o1)OCc1ccccc1 [Example 75, Benzyl{5-[(hydroxyamino)carbonyl]-2-furyl}carbamate]	100 µM	> 100 µM	> 100 µM	> 100 µM	> 100 µM	> 100 µM	> 100 µM	9 µM	85 µM	>100	–	6.61	–	–
O=C(Nc1ccc(C(=O)NO)cc1)OCC1c2ccccc2-c2ccccc21 [Example 76]	10 µM	82 µM	> 100 µM	7.5 µM	65 µM	> 100 µM	90 µM	3 µM	9 µM	6.8	50.50	75.80	–	–
CC(=O)N(O)C(=O)Cc1csc(NC(=O)OCc2ccsc2)n1 [Example 77, 3-thienylmethyl(4-{2-[acetyl(hydroxy)amino]-2-oxoethyl}-1,3-thiazol-2-yl)carbamate]	53 µM	> 100 µM	> 100 µM	60 µM	> 100 µM	> 100 µM	> 100 µM	6 µM	65 µM	39.7	7.7	14.8	–	–
CC(=O)N(O)C(=O)Cc1csc(NC(=O)OCc2ccc(Br)s2)n1 [Example 78, (5-bromo-2-thienyl)methyl(4-{2-[acetyl(hydroxy)amino]-2-oxoethyl}-1,3-thiazol-2-yl)carbamate]	6.5 µM	45 µM	> 100 µM	30 µM	80 µM	–	–	20 µM	75 µM	18.8	3.61	35.88	> 100 µM	> 100 µM
CC(=O)N(O)C(=O)Cc1csc(NC(=O)OCc2cccs2)n1 [Example 80, 2-Thienylmethyl(4-{2-[acetyl(hydroxy)amino]-2-oxoethyl}-1,3-thiazol-2-yl)carbamate]	53 µM	> 100 µM	> 100 µM	> 100 µM	> 100 µM	> 100 µM	> 100 µM	35 µM	96 µM	>100	–	5.28	–	–
CC(=O)ONC(=O)c1ccc(CNC(=O)OCc2cccs2)cc1 [Example 82, 2-Thienylmethyl(4-{[(acetyloxy)amino]carbonyl}benzyl)carbamate]	24 µM	62 µM	> 100 µM	7 µM	41 µM	78 µM	> 100 µM	28 µM	52 µM	19.66	48.96	86.12	–	–
CC(=O)ONC(=O)c1ccc(CNC(=O)OCc2nccs2)cc1 [Example 83, 1,3-thiazol-2-ylmethyl(4-{[(acetyloxy)amino]carbonyl}benzyl)carbamate]	30 µM	60 µM	90 µM	10 µM	56 µM	84 µM	> 100 µM	9 µM	66 µM	16.33	22.38	63.89	–	–
COC(=O)ONC(=O)c1ccc(CNC(=O)OCc2cccs2)cc1 [Example 84, 2-Thienylmethyl[4-({[(methoxycarbonyl)oxy]amino}carbonyl)benzyl]carbamate]	81 µM	> 100 µM	> 100 µM	> 100 µM	> 100 µM	> 100 µM	> 100 µM	54 µM	> 100 µM	>100	20.20	61.74	–	–
O=C(CCCCCNC(=O)Cc1csc(NC(=O)OCc2cccnc2)n1)NO [Example 87, pyridin-3-ylmethyl[4-(2-{[6-(hydroxyamino)-6-oxohexyl]amino}-2-oxoethyl)-1,3-thiazol-2-yl]carbamate]	> 100 µM	> 100 µM	> 100 µM	> 100 µM	> 100 µM	> 100 µM	> 100 µM	10 µM	> 100 µM	>100	42.24	87.80	–	–
